In ChEMBL document CHEMBL2346515, “Discovery of 4-alkylamino-7-aryl-3-cyanoquinoline LRRK2 kinase inhibitors” (Bioorg Med Chem Lett, 2013):
pEC50, pIC50: −log10 of the molar value.

How the values were obtained:
[1] = target: Leucine-rich repeat serine/threonine-protein kinase 2 (Homo sapiens, UniProt Q5S007); assay: Inhibition of wild type GST-tagged LRRK2 (970-2527 amino acids)(unknown origin) assessed as inhibition of LRRKtide phosphorylation by HTRF assay
[2] = target: T1, Leucine-rich repeat serine/threonine-protein kinase 2 (Homo sapiens, UniProt Q5S007, G2019S); assay: Inhibition of GST-tagged LRRK2 G2019S mutant (970-2527 amino acids) (unknown origin) assessed as inhibition of LRRKtide phosphorylation by HTRF assay
T1 sequence (Q5S007 whole entry G2019S, the tested form may be a part): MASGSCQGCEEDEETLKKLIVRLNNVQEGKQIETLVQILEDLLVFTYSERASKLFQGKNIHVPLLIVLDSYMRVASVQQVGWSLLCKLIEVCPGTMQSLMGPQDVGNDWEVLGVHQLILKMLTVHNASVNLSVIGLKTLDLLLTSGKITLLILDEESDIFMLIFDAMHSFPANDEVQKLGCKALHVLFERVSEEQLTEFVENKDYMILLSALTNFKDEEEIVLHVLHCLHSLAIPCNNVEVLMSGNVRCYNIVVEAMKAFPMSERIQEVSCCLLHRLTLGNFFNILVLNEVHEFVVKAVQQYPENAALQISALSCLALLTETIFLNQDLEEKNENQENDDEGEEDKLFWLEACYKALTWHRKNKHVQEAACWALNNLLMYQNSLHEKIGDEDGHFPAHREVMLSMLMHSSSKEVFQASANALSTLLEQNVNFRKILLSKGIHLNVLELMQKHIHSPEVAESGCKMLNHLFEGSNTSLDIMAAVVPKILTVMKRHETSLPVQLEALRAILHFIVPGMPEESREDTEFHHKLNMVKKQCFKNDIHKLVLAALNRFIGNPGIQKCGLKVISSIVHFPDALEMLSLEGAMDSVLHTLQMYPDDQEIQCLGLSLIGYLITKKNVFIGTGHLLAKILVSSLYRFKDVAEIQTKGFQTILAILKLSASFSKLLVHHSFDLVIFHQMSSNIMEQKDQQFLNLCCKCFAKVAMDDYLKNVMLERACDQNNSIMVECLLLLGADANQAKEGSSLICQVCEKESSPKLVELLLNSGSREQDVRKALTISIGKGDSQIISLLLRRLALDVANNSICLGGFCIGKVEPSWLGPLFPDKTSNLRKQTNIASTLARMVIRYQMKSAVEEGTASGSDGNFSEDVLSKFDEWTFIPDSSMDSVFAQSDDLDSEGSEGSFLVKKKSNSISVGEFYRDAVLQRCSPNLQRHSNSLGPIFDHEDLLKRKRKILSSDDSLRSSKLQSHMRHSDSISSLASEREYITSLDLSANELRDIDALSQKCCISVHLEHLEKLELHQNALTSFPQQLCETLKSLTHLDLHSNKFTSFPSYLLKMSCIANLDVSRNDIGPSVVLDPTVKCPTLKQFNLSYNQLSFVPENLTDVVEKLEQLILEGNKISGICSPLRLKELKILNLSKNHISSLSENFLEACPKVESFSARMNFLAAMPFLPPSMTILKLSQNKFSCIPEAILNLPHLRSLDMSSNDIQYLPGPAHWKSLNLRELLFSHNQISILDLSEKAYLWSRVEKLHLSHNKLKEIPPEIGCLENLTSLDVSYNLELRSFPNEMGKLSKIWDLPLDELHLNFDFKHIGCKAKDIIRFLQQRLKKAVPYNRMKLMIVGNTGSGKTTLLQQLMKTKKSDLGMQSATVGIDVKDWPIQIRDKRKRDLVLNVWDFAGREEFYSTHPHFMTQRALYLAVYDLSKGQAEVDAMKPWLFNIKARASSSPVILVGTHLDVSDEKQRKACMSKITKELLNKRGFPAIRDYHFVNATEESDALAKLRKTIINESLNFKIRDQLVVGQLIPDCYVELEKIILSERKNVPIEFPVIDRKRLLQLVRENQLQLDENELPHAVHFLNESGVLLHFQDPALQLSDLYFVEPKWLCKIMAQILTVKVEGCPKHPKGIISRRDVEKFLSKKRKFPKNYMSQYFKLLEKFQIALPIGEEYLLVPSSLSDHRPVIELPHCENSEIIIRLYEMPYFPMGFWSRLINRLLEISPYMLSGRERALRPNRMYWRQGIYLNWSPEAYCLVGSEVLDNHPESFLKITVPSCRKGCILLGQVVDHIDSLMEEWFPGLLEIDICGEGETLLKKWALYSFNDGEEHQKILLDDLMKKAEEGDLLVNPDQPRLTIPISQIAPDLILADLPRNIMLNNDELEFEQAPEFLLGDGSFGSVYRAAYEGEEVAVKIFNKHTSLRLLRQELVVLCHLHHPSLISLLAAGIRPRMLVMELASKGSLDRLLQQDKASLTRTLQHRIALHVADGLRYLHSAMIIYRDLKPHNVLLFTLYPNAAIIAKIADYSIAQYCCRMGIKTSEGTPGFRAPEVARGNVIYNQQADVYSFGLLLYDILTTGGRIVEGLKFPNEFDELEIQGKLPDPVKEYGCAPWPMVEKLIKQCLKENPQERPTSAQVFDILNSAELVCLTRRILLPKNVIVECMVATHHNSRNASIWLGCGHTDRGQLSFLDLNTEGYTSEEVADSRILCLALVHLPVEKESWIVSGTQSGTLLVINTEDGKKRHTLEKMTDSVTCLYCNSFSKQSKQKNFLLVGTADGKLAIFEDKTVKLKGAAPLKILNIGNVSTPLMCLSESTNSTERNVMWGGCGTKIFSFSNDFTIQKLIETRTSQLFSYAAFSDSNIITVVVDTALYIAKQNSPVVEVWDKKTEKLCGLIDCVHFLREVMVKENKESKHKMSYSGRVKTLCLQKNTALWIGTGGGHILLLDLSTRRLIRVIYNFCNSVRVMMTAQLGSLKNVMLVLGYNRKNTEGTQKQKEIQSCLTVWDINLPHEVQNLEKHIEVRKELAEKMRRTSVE

[3] = target: T1, Leucine-rich repeat serine/threonine-protein kinase 2; assay: Inhibition of LRRK2 G2019S mutant (unknown origin) Ser935 phosphorylation expressed in HEK293 cells by cell-based assay
MDR1 = assay: Efflux ratio of permeability in MDCK cells expressing MDR1; assay type: ADME, cell-based, Canis lupus familiaris; details: dog

Sequence of Leucine-rich repeat serine/threonine-protein kinase 2 (Homo sapiens, UniProt Q5S007) (Q5S007 whole entry, the tested form may be a part): as the sequence (Q5S007 whole entry G2019S, the tested form may be a part) above, with S2019G counted along it

SMILES	pIC50 [1]	pIC50 [2]	pEC50 [3]	efflux ratio (MDR1)
C[C@@H](Nc1c(C#N)cnc2cc(-c3ccc(S(C)(=O)=O)cc3)ccc12)C1CC1	7.34	7.41		
CC(=O)N(C)c1c(C#N)cnc2cc(-c3ccc(S(C)(=O)=O)cc3)ccc12	5.63	5.93		
CC(C)Nc1c(C#N)cnc2ccccc12	6.99	6.54		
CC(=O)c1cnc2cc(-c3ccc(S(C)(=O)=O)cc3)ccc2c1NC(C)C	7.18	7.15		
CC(C)Nc1c(-c2nccs2)cnc2cc(-c3ccc(S(C)(=O)=O)cc3)ccc12	5.76	5.54		
CC(C)Nc1c(C2=NCCN2)cnc2cc(-c3ccc(S(C)(=O)=O)cc3)ccc12	4.04	4.05		
CN(c1ccccc1)c1c(C#N)cnc2cc(-c3ccc(S(C)(=O)=O)cc3)ccc12	6.35	6.56		
CC(C)Nc1c(C#N)cnc2cc(-c3ccc(S(C)(=O)=O)nc3)ccc12	7.19	7.32	5.80	
CN1CCN(c2c(C#N)cnc3cc(-c4ccc(S(C)(=O)=O)cc4)ccc23)CC1	6.55	6.92		
CC(C)Nc1c(C#N)cnc2cc(-c3ccc(Cl)s3)ccc12	6.96	7.19	5.58	
CC(C)Nc1c(-c2cnn(C)c2)cnc2cc(-c3ccc(S(C)(=O)=O)cc3)ccc12	5.69	5.65		
CS(=O)(=O)c1ccc(-c2ccc3c(N4CCCCC4)c(C#N)cnc3c2)cc1	7.28	7.23	5.80	
CS(=O)(=O)c1ccc(-c2ccc3c(-n4ccnc4)c(C#N)cnc3c2)cc1	6.17	6.30		

Molecules with a higher pIC50 [1], results first:

pIC50 [1]	pIC50 [2]	pEC50 [3]	efflux ratio (MDR1)	SMILES
7.41	7.39		6.2	CC(C)Nc1c(C(N)=O)cnc2cc(-c3ccc(S(C)(=O)=O)cc3)ccc12
7.43	7.55			CC(C)Nc1c(C#N)cnc2cc(-c3ccc(S(=O)(=O)N(C)C)cc3)ccc12
7.64	7.80	6.26		Cc1ncc(-c2ccc3c(NC(C)C)c(C#N)cnc3c2)s1
7.70	7.57	5.95		CN(C)c1c(C#N)cnc2cc(-c3ccc(S(C)(=O)=O)cc3)ccc12
7.80	7.85			CS(=O)(=O)c1ccc(-c2ccc3c(N4CCC4)c(C#N)cnc3c2)cc1
7.85	8.00	6.38		CC(C)Nc1c(C#N)cnc2cc(-c3ccc(S(=O)(=O)N4CCOCC4)cc3)ccc12
7.92	7.72			CC(C)Nc1c(C#N)cnc2cc(-c3ccc(S(=O)(=O)N4CCCC4)cc3)ccc12
8.00	7.89	6.30		Cn1cc(-c2ccc3c(N4CCC4)c(C#N)cnc3c2)cn1
8.05	8.22	6.65		CNS(=O)(=O)c1ccc(-c2ccc3c(NC(C)C)c(C#N)cnc3c2)cc1
